Laboratory results from publication PMC5329948, “Caspase vinyl sulfone small molecule inhibitors prevent axonal degeneration in human neurons and reverse cognitive impairment in Caspase-6-overexpressing mice” (Molecular Neurodegeneration, 2017).

Columns and labels:
mice = test: One month treatment toxicity in mice (pathology report); assay type: in vivo, mouse; conditions: one month treatment (Additional file 1)
Procedure: Casp6 transgenic mouse model: All animal procedures followed the Canadian Council on Animal Care guidelines and were approved by the McGill Animal care committees. Sixteen to 20 month old C57BL/6 J mice were bred and aged in the pathogen-free Goodman Cancer Research Centre Mouse Transgenic Facility at McGill University. Mice were housed in a temperature-controlled room at 22 °C and were kept on a 12 h light/dark cycle. Food and water were available at libitum. Casp6 overexpressing mice (KI/Cre) express Casp6p20p10 under the CAG promoter (CMV immediate early enchancer/chicken β-actin promoter fusion) in the CA1 pyramidal cell layer of the hippocampus under the control of calmodulin kinase IIa (CAMKIIa)-regulated Cre expression.
Additional file 1: Pathology report. Contains pharmacokinetic and toxicological analysis of CD-1 mice treated with NWL-117 for 28 days every 3 days. (PDF 3742 kb) Additional file 2: Figures S1-S4. Contains additional information to complement Figs. 3, 4, and 6 of the manuscript. (PDF 463 kb)

[1] = molecular target: T1, Casp6 in serum-deprived primary human neurons (Homo sapiens, UniProt P55212); test: Casp6 activity in serum-deprived primary human neurons (VEIDase, FLICA, TubΔCasp6); assay type: cell-based; conditions: 100 μM
T1 construct: endogenous in cells; host or cells: primary human CNS neurons from cortical tissue, serum-deprived
Procedure: HCT116: Human colon carcinoma (HCT116) cells (ATCC, Manassas, VA, USA) were cultured in McCoy’s 5A modified media (Thermo Fisher Scientific, Waltham, MA, USA) supplemented with 10% fetal bovine serum (Thermo Fisher Scientific, Waltham, MA, USA) and transfected with 1 μg of pCep4βCasp6p20p10 mixed with 8 μg of polyethyleneimine (Polysciences Inc., Warrington, PA, USA). Protein expression was allowed for 24 h before treating with vehicle (PBS), 100 μM NWL-117, or 100 μM NWL-154 for 2 h. For NWL inhibitor kinetic experiments, 100 μM of NWL-117 or NWL-154 was added at 120, 90, 60, 30, 15, or 0 min before harvest. […]
Recombinant or extracted cellular Casp6 activity: Casp6 activity was assessed by in vitro fluorogenic assays using Ac-Val-Glu-Ile-Asp-(7-Amino-4-trifluoromethylcouramin) (Ac-VEID-AFC: Enzo LifeSciences, NY, USA) as the Casp6 substrate. The activity was measured in Stennicke’s buffer (SB) (20 mM piperazine-N, N-bis (2-ethanesulfonic acid) (PIPES: BioShop Canada Inc, Burlington, Ontario, CA) pH 7.2, 30 mM NaCl, 1 mM ethylenediaminetetraacetic acid (EDTA), 0.1% 3-[(3-cholamidopropyl)-dimethylammonio]-2-hydroxy-1-propanesulfonic acid (CHAPS), 10% sucrose). […] Fluorescence units were converted to the moles of AFC released based on a standard curve of 0–625 picomoles of free AFC. Cleavage rates were calculated from the linear phase of the assay. […]

T1 sequence (P55212 24-293): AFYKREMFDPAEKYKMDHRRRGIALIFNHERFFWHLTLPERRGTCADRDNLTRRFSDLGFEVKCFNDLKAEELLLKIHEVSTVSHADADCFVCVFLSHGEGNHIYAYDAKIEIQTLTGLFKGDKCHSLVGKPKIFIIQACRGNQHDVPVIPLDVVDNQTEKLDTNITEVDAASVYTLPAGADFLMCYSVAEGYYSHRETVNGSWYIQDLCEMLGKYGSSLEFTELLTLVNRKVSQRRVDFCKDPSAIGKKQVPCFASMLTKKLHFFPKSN

SMILES | toxicity after one month treatment (mice) | Casp6 fluorogenic and FLICA-measured activity and TubΔCasp6 [1]
CCC(C)[C@H](NC(=O)[C@H](CCC(=O)O)NC(=O)[C@@H](NC(=O)OCc1ccccc1)C(C)C)C(=O)N[C@H](/C=C/S(C)(=O)=O)CC(=O)O (stereo partly drawn) [NWL-117] | No obvious toxicity | decreased
CCC(C)[C@H](NC(=O)[C@H](CCC(=O)O)NC(=O)[C@@H](NC(=O)OCc1ccccc1)C(C)C)C(=O)N[C@H](/C=C(\Cl)S(C)(=O)=O)CC(=O)O (stereo partly drawn) [NWL-154] |  | decreased
